Test results as given in patent US12083109B2, “Neurokinin antagonists and uses thereof” (California Institute of Technology, priority 2017, dated 2024).

B1: shRNA-1: small hairpin RNA for mouse Tac2 gene (SEQ ID NO: 9, 10), expressed from AAV5-H1-shRNA-CMV-zsGreen (nucleic acid)
chain 1: CCGACGTGGTTGAAGAGAACACCGCTTCCTGTCACGGTGTTCTCTTCAACCACGTCTTTTTT
chain 2: AAAAAAGACGTGGTTGAAGAGAACACCGTGACAGGAAGCGGTGTTCTCTTCAACCACGTCGG

How the values were obtained:
[1] = biological target: T1, hM3DREADD in Tac2+ neurons (Homo sapiens, UniProt P20309, A239G/Y149C); experiment: Behavioral assays in group housed Tac2-Cre mice, CNO activation (hM3DREADD) with or without Tac2 cDNA; assay type: in vivo, mouse
T1 construct: host or cells: Tac2+ neurons of group-housed Tac2-Cre mice, transduced in vivo by intravenous AAV-PHP.B-hSyn-DIO-hM3D-mCherry, with or without the Tac2 cDNA virus
T1 sequence (P20309 whole entry Y149C/A239G): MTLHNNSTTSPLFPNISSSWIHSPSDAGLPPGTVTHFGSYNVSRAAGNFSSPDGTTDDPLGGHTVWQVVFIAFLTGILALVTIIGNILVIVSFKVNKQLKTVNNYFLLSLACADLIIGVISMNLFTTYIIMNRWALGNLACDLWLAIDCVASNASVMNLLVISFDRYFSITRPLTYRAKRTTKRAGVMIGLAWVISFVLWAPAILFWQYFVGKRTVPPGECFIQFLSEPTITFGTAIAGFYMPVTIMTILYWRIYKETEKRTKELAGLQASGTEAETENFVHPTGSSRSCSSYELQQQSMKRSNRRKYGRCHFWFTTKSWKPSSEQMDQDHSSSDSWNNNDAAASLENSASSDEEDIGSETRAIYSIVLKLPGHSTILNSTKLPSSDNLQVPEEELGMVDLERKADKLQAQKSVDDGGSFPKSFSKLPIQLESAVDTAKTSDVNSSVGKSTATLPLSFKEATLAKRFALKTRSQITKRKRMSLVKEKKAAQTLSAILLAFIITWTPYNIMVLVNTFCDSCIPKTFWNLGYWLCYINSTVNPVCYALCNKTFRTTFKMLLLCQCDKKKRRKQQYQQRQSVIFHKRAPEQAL
Method: The AAV-hSyn-DIO-Tac2-P2A-mCherry, AAV-hSyn-DIO-hM3D-mCherry, and AAV-hSyn-DIO-mCherry recombinant AAV genomes were separately packaged into the AAV-PHP.B capsid by triple transfection of HEK293T cells and purified with iodixanol step gradients as previously described (Deverman et al., 2016; incorporated by reference in its entirety). 5×10^11 vector genomes (vg) of each virus were administered intravenously (via the retro-orbital sinus) to Tac2-Cre animals individually or in combination. To equalize the amount of virus given to each mouse, 5×10^11 vg of AAV-PHP.B-hSyn-DIO-mCherry was administered to each animal to bring the amount of virus up to the amount injected in the double Tac2^+ hM3DREAAD group. Each animal received a total vector dose of 1×10^12 vg.
Mice were administered the Nk3R antagonist osanetant (Axon Medchem, Axon 1533) either systemically or intra-brain region. Osanctant was dissolved in saline with 0.1% Tween 20 (vehicle). For systemic administration mice received an intraperitoneal (i.p.) injection (5 mg/kg) 20 minutes prior to behavioral testing. For microinfusions, guide cannulas were removed from mice and replaced with injector cannulas (Plastics One), which protruded 0.5 mm from the tip of the guide cannula. Injectors were attached to 5 μl Hamilton syringes with PE tubing (Plastics One) and mounted on a microinfusion pump (Harvard Apparatus) for controlled infusion of osanetant (0.3 μl vehicle with 375 ng dose per site injected over 6 minutes). For experiments using systemic administration of clozapine-N-oxide (CNO), CNO (Enzo Life Sciences-Biomol, BML-NS105-0005) was dissolved in saline (9 g/L NaCl) and injected (i.p.) at 5 mg/kg for hM4DREADD silencing or 2 mg/kg for hM3DREADD activation 20 minutes prior to behavioral testing. CNO was also administered chronically in drinking water (0.5 mg CNO/100 ml water).
These viruses were intravenously injected (individually or in combination) into GH Tac2-Cre mice (FIGS. 14A-T). […]

Tac2 = experiment: Resident intruder assay, Tac2 shRNA knockdown; assay type: in vivo, mouse; conditions: SIS mice
Description: Small hairpin RNA (shRNA) for the mouse Tac2 gene (NM_009312.2) were designed using the online designing tool siDirect 2.0 (http://sidirect2.mai.jp/) (Naito et al., 2009; incorporated by reference in its entirety).
8-16 week old mice were anesthetized with isoflurane and mounted in a stereotaxic apparatus (Kopf Instruments). Anesthesia was maintained throughout surgery at 1-1.5% isoflurane. The skull was exposed and small burr holes produced dorsal to each injection site using a stereotaxic mounted drill. […] Directly following surgery, mice were given a subcutaneous injection of ketoprofen (2 mg/kg) and supplied with drinking water containing 400 mg/L sulphamethoxazole and 200 mg/L ibuprofen and monitored for 7 days. […]
Testing for aggression using the resident intruder assay (Blanchard et al., 2003; incorporated by reference in its entirety) was performed as previously described (Hong et al., 2015; Hong et al., 2014; Lee et al., 2014; incorporated by reference in their entirety). […] Fighting bouts were scored on a frame-by-frame basis and were defined as a frame during which the resident male was engaged in an episode of biting or intense aggressive behavior immediately surrounding a biting episode. Annotation files were then batch analyzed for behavior, including number of fighting bouts, using in-house customized programs in MATLAB (A. Kennedy, Caltech). […]

Row | Molecule | SIS-like behavioral effects (increased aggression, persistent freezing to threats) ([1]; group housed Tac2-Cre mice, Tac2 cDNA plus hM3DREADD viruses, CNO in drinking water 2 weeks and 2 mg/kg i.p. before test) | SIS-like behavioral effects ([1]; group housed Tac2-Cre mice, activation of Tac2+ neurons on its own (hM3DREADD, CNO)) | SIS-like behavioral effects ([1]; group housed control mice, mCherry-only virus, treated with CNO) | SIS-induced aggression (Tac2; AAV shRNA in DMH) | SIS-induced aggression (Tac2; AAV shRNA in dBNSTa)
1 | C[N+]1([O-])CCN(C2=Nc3cc(Cl)ccc3Nc3ccccc32)CC1 [CNO, clozapine-N-oxide] | recapitulated key behavioral effects of SIS | insufficient | No such effects |  | 
2 | B1 |  |  |  | blocked | had no effect
